Test results as given in US5401490A, “Markers of tissue hypoxia” (priority 1989, dated 1995).

System: BALB/C mice bearing subcutaneous EMT-6 tumors
Assay: Tissue distribution of radioactivity after intravenous injection
Type: in vivo
Conditions: for Tissue to Blood Ratio, Bone / Tissue to Blood Ratio, Carcass / Tissue to Blood Ratio, Heart / Tissue to Blood Ratio, Intestine / Tissue to Blood Ratio, Kidney / Tissue to Blood Ratio, Liver / Tissue to Blood Ratio, Lung / Tissue to Blood Ratio, Muscle / Tissue to Blood Ratio, Spleen / Tissue to Blood Ratio, Stomach / Tissue to Blood Ratio, Tumor: i.v.; for deiodination (increase in thyroid radioactivity): longer periods (>4 h)
From the text: Tables 1 and 2 show the percent of injected IAZG and IAZA respectively per gram of wet tissue for selected tissues excised from BALB/C mice bearing EMT-6 tumors. This tumor model is known to have a high hypoxic fraction (0.33) (16). […] Hepatobiliary excretion may play a role in blood clearance as evidenced by elevated liver radioactivity and the appearance of activity in the intestine. Some oxidative or reductive metabolites of the 2-nitroimidazoles may also become bound to liver tissue, as was postulated in an in vivo study with ^14 C-MISO (6). This supposition is supported by the persistence of liver radioactivity at longer time periods. […] At 8 and 24 hours thyroid levels of IAZG are 7.2 and 30.9% of the total body activity and for IAZA they are 7.9 and 33.8% of total body activity. EXAMPLE 11 TISSUE DISTRIBUTION AND EXCRETION Tumor propagation of EMT-6 tumors in BALB/C mice was accomplished by subcutaneous injection of a cell suspension (10^5 cells in 0.1 mL) as described previously (10). Tumors reached about 10 mm in diameter (≈0.5 g) at 12 to 14 days, at which time each animal was given a bolus intravenous injection of ^125 I-labelled test drug via the tail vein (40 to 60 kBq in 0.1 mL). At set time periods the animals were asphyxiated with CO2 and exsanguinated via cardiac puncture. Tissues were dissected, weighed wet into vials and counted for ^125 I-activity. Whole-body activity was determined by summation of total activity in tissues and in residual carcass, and blood activity was determined from the blood aliquot, assuming blood to be 6.5% of the total body weight. EXAMPLE 12 Male BALB/c mice (20-25 g) were inoculated subcutaneously in the left flank with a suspension of murine EMT-6 cells (10^5 cells in 0.1 mL) (14). After 12 to 14 days, when the tumors reached the desired size (8-10 mm diameter), each mouse received a single intravenous (iv) injection of ^125 I-IAZA (59 kBq in 0.1 mL). […] Heart, lung, liver, spleen, muscle, bone, thyroid, kidney, stomach, small intestine, tail, tumor and skin were removed upon necropsy, weighed and analyzed for ^125 I using a Beckman Model 8000 gamma scintillation counter. The remaining carcass mass was also weighed and radioassayed.

## O=[N+]([O-])c1nccn1[C@@H]1O[C@H](CI)[C@@H](O)[C@@H]1O [IAZA, 1-(5-iodo-5-deoxy-β-D-arabino-furanosyl)-2-nitroimidazole]
0.25 h
  Tissue to Blood Ratio, Bone: 0.50
  Tissue to Blood Ratio, Carcass: 1.02
  Tissue to Blood Ratio, Heart: 1.78
  Tissue to Blood Ratio, Intestine: 2.06
  Tissue to Blood Ratio, Kidney: 2.49
  Tissue to Blood Ratio, Liver: 3.29
  Tissue to Blood Ratio, Lung: 1.75
  Tissue to Blood Ratio, Muscle: 1.17
  Tissue to Blood Ratio, Spleen: 1.36
  Tissue to Blood Ratio, Stomach: 1.66
  Tissue to Blood Ratio, Tumor: 0.97
0.50 h
  Tissue to Blood Ratio, Bone: 0.63
  Tissue to Blood Ratio, Carcass: 1.18
  Tissue to Blood Ratio, Heart: 1.64
  Tissue to Blood Ratio, Intestine: 2.04
  Tissue to Blood Ratio, Kidney: 2.61
  Tissue to Blood Ratio, Liver: 3.29
  Tissue to Blood Ratio, Lung: 1.74
  Tissue to Blood Ratio, Muscle: 1.28
  Tissue to Blood Ratio, Spleen: 1.38
  Tissue to Blood Ratio, Stomach: 2.19
  Tissue to Blood Ratio, Tumor: 1.60
1 h
  Tissue to Blood Ratio, Bone: 0.63
  Tissue to Blood Ratio, Carcass: 1.21
  Tissue to Blood Ratio, Heart: 1.51
  Tissue to Blood Ratio, Intestine: 2.52
  Tissue to Blood Ratio, Kidney: 2.38
  Tissue to Blood Ratio, Liver: 3.06
  Tissue to Blood Ratio, Lung: 1.63
  Tissue to Blood Ratio, Muscle: 1.19
  Tissue to Blood Ratio, Spleen: 1.35
  Tissue to Blood Ratio, Stomach: 2.15
  Tissue to Blood Ratio, Tumor: 1.46
2 h
  Tissue to Blood Ratio, Bone: 0.64
  Tissue to Blood Ratio, Carcass: 1.60
  Tissue to Blood Ratio, Heart: 1.13
  Tissue to Blood Ratio, Intestine: 1.90
  Tissue to Blood Ratio, Kidney: 1.98
  Tissue to Blood Ratio, Liver: 2.39
  Tissue to Blood Ratio, Lung: 1.26
  Tissue to Blood Ratio, Muscle: 0.75
  Tissue to Blood Ratio, Spleen: 1.02
  Tissue to Blood Ratio, Stomach: 3.62
  Tissue to Blood Ratio, Tumor: 2.80
4 h
  Tissue to Blood Ratio, Bone: 0.60
  Tissue to Blood Ratio, Carcass: 1.98
  Tissue to Blood Ratio, Heart: 0.71
  Tissue to Blood Ratio, Intestine: 1.80
  Tissue to Blood Ratio, Kidney: 1.46
  Tissue to Blood Ratio, Liver: 2.11
  Tissue to Blood Ratio, Lung: 1.00
  Tissue to Blood Ratio, Muscle: 0.53
  Tissue to Blood Ratio, Spleen: 0.78
  Tissue to Blood Ratio, Stomach: 4.02
  Tissue to Blood Ratio, Tumor: 4.62
8 h
  Tissue to Blood Ratio, Bone: 0.57
  Tissue to Blood Ratio, Carcass: 2.00
  Tissue to Blood Ratio, Heart: 1.57
  Tissue to Blood Ratio, Intestine: 5.50
  Tissue to Blood Ratio, Kidney: 2.43
  Tissue to Blood Ratio, Liver: 3.36
  Tissue to Blood Ratio, Lung: 2.36
  Tissue to Blood Ratio, Muscle: 2.57
  Tissue to Blood Ratio, Spleen: 1.29
  Tissue to Blood Ratio, Stomach: 6.21
  Tissue to Blood Ratio, Tumor: 8.71
8 hours
  thyroid levels: 7.9 % of the total body activity
24 h
  Tissue to Blood Ratio, Bone: 0.59
  Tissue to Blood Ratio, Carcass: 1.03
  Tissue to Blood Ratio, Heart: 1.14
  Tissue to Blood Ratio, Intestine: 1.11
  Tissue to Blood Ratio, Kidney: 1.41
  Tissue to Blood Ratio, Liver: 2.64
  Tissue to Blood Ratio, Lung: 1.00
  Tissue to Blood Ratio, Muscle: 0.54
  Tissue to Blood Ratio, Spleen: 0.97
  Tissue to Blood Ratio, Stomach: 1.81
  Tissue to Blood Ratio, Tumor: 5.56
24 hours
  thyroid levels: 33.8 % of the total body activity
At 8 h
  injected dose in tumor at maximum tumor to blood ratio: 1.22 % of the injected dose
  maximum tumor to blood ratio: 8.7
At 24 h
  tumor to blood ratio (text, FIG. 7): > 5.5
In words
  uptake in EMT-6 tumor tissue: taken up preferentially in EMT-6 tumor tissue
  deiodination (increase in thyroid radioactivity): evidence of deiodination at longer periods (>4 h)

## O=[N+]([O-])c1nccn1[C@@H]1O[C@H](CI)[C@H](O)[C@H](O)[C@H]1O [IAZG, 1-(6-iodo-6-deoxy-β-D-galactopyranosyl)-2-nitroimidazole]
0.25 h
  Tissue to Blood Ratio, Intestine: 3.65
  Tissue to Blood Ratio, Kidney: 8.58
  Tissue to Blood Ratio, Liver: 3.00
  Tissue to Blood Ratio, Lung: 1.51
  Tissue to Blood Ratio, Muscle: 0.72
  Tissue to Blood Ratio, Stomach: 1.79
  Tissue to Blood Ratio, Tumor: 0.95
0.50 h
  Tissue to Blood Ratio, Intestine: 3.19
  Tissue to Blood Ratio, Kidney: 8.07
  Tissue to Blood Ratio, Liver: 2.66
  Tissue to Blood Ratio, Lung: 1.31
  Tissue to Blood Ratio, Muscle: 0.63
  Tissue to Blood Ratio, Stomach: 1.92
  Tissue to Blood Ratio, Tumor: 1.31
1 h
  Tissue to Blood Ratio, Intestine: 1.42
  Tissue to Blood Ratio, Kidney: 5.56
  Tissue to Blood Ratio, Liver: 1.82
  Tissue to Blood Ratio, Lung: 0.90
  Tissue to Blood Ratio, Muscle: 0.48
  Tissue to Blood Ratio, Stomach: 1.64
  Tissue to Blood Ratio, Tumor: 1.47
2 h
  Tissue to Blood Ratio, Intestine: 1.48
  Tissue to Blood Ratio, Kidney: 5.06
  Tissue to Blood Ratio, Liver: 2.55
  Tissue to Blood Ratio, Lung: 1.13
  Tissue to Blood Ratio, Muscle: 0.62
  Tissue to Blood Ratio, Stomach: 2.61
  Tissue to Blood Ratio, Tumor: 1.45
4 h
  Tissue to Blood Ratio, Intestine: 1.04
  Tissue to Blood Ratio, Kidney: 4.00
  Tissue to Blood Ratio, Liver: 1.51
  Tissue to Blood Ratio, Lung: 1.16
  Tissue to Blood Ratio, Muscle: 0.49
  Tissue to Blood Ratio, Stomach: 1.85
  Tissue to Blood Ratio, Tumor: 1.56
8 h
  Tissue to Blood Ratio, Intestine: 1.05
  Tissue to Blood Ratio, Kidney: 2.47
  Tissue to Blood Ratio, Liver: 1.24
  Tissue to Blood Ratio, Lung: 0.98
  Tissue to Blood Ratio, Muscle: 0.36
  Tissue to Blood Ratio, Stomach: 2.50
  Tissue to Blood Ratio, Tumor: 1.34
8 hours
  thyroid levels: 7.2 % of the total body activity
24 h
  Tissue to Blood Ratio, Intestine: 0.83
  Tissue to Blood Ratio, Kidney: 1.52
  Tissue to Blood Ratio, Liver: 1.32
  Tissue to Blood Ratio, Lung: 1.26
  Tissue to Blood Ratio, Muscle: 0.38
  Tissue to Blood Ratio, Stomach: 0.87
  Tissue to Blood Ratio, Tumor: 1.41
24 hours
  thyroid levels: 30.9 % of the total body activity
At 4 h
  injected dose in tumor at maximal tumor to blood ratio: 0.23 % of the injected dose
  maximal tumor to blood ratio: 1.56
  deiodination (increase in thyroid radioactivity): evidence of deiodination at longer periods (>4 h)
